From PubChem BioAssay (NCI)
Values joined by “and” are separate entries in the source; they are usually repeats but may differ in a detail not shown here. Equal entries are not always repeated.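 Step 1: Grow cells in 96-well plates. Step 2: Expose to compound for 48 hours at 5 concentrations. Step 3: Interpolate endpoints linearly; if unreached, use highest concentration. The concentration for 50% growth inhibition is given as GI50. TGI marks complete inhibition of growth.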

Assays:
Assay in all cases: NCI tumour cell line growth inhibition, 48 h
HOP-18 NSCLC = tested on: HOP-18 NSCLC
SF-268 CNS = tested on: SF-268 CNS
CAKI-1 renal = tested on: CAKI-1 renal
SR leukemia = tested on: SR leukemia
OVCAR-8 ovarian = tested on: OVCAR-8 ovarian
UACC-257 melanoma = tested on: UACC-257 melanoma
HCT-15 colon = tested on: HCT-15 colon
A549 NSCLC = tested on: A549 NSCLC
DMS 114 small cell lung = tested on: DMS 114 small cell lung
DMS 273 small cell lung = tested on: DMS 273 small cell lung
M14 melanoma = tested on: M14 melanoma
TK-10 renal = tested on: TK-10 renal
HOP-92 NSCLC = tested on: HOP-92 NSCLC
OVCAR-3 ovarian = tested on: OVCAR-3 ovarian
RPMI-8226 leukemia = tested on: RPMI-8226 leukemia
SK-MEL-28 melanoma = tested on: SK-MEL-28 melanoma
NCI-H522 lung = tested on: NCI-H522 lung
DLD-1 colon = tested on: DLD-1 colon
SN12C renal = tested on: SN12C renal
SW-620 colon = tested on: SW-620 colon
MALME-3M melanoma = tested on: MALME-3M melanoma
BT-549 breast = tested on: BT-549 breast
SNB-19 CNS = tested on: SNB-19 CNS
UACC-62 melanoma = tested on: UACC-62 melanoma
786-0 renal = tested on: 786-0 renal
SN12K1 renal = tested on: SN12K1 renal
RXF 393 renal = tested on: RXF 393 renal
K-562 leukemia = tested on: K-562 leukemia
SK-MEL-2 melanoma = tested on: SK-MEL-2 melanoma
LOX IMVI melanoma = tested on: LOX IMVI melanoma
KM12 colon = tested on: KM12 colon
SF-295 CNS = tested on: SF-295 CNS
IGROV1 ovarian = tested on: IGROV1 ovarian
A498 renal = tested on: A498 renal
NCI-H23 lung = tested on: NCI-H23 lung
COLO 205 colon = tested on: COLO 205 colon
HCC-2998 colon = tested on: HCC-2998 colon
P388 leukemia = tested on: P388 leukemia
HL-60(TB) leukemia = tested on: HL-60(TB) leukemia
UO-31 renal = tested on: UO-31 renal
PC-3 prostate = tested on: PC-3 prostate
SK-OV-3 ovarian = tested on: SK-OV-3 ovarian
HS 578T breast = tested on: HS 578T breast
DU-145 prostate = tested on: DU-145 prostate
T-47D breast = tested on: T-47D breast
EKVX NSCLC = tested on: EKVX NSCLC
M19-MEL melanoma = tested on: M19-MEL melanoma
HCT-116 colon = tested on: HCT-116 colon
MDA-N = tested on: MDA-N
NCI/ADR-RES ovarian = tested on: NCI/ADR-RES ovarian
P388/ADR leukemia = tested on: P388/ADR leukemia
MDA-MB-231 breast = tested on: MDA-MB-231 breast
SK-MEL-5 melanoma = tested on: SK-MEL-5 melanoma
SNB-78 CNS = tested on: SNB-78 CNS
MDA-MB-435 = tested on: MDA-MB-435
U251 CNS = tested on: U251 CNS
OVCAR-4 ovarian = tested on: OVCAR-4 ovarian
MCF7 breast = tested on: MCF7 breast
NCI-H226 lung = tested on: NCI-H226 lung
KM20L2 colon = tested on: KM20L2 colon
SF-539 CNS = tested on: SF-539 CNS
SNB-75 CNS = tested on: SNB-75 CNS
HOP-62 NSCLC = tested on: HOP-62 NSCLC
CCRF-CEM leukemia = tested on: CCRF-CEM leukemia
OVCAR-5 ovarian = tested on: OVCAR-5 ovarian
HT29 colon = tested on: HT29 colon
NCI-H460 lung = tested on: NCI-H460 lung
ACHN renal = tested on: ACHN renal
MOLT-4 leukemia = tested on: MOLT-4 leukemia

Nc1ccc2c(c1)CN1C(=O)c3ccccc3C1=N2 was tested, and the TGI (HOP-18 NSCLC) was > 125 µM, the GI50 (SF-268 CNS) was 58.6 µM and the TGI (SF-268 CNS) was 108 µM. The TGI (CAKI-1 renal) was > 70.3 µM, the GI50 (SR leukemia) was 26.4 µM and the TGI (SR leukemia) was > 125 µM. For the same compound, the TGI (OVCAR-8 ovarian) was 115 µM, the GI50 (UACC-257 melanoma) was 67.5 µM and the TGI (UACC-257 melanoma) was > 125 µM. The GI50 (HCT-15 colon) was 42.4 µM, the TGI (HCT-15 colon) was > 125 µM and the TGI (A549 NSCLC) was > 125 µM. For the same compound, the TGI (DMS 114 small cell lung) was > 125 µM, the TGI (DMS 273 small cell lung) was > 125 µM and the TGI (M14 melanoma) was > 125 µM. For the same compound, the GI50 (TK-10 renal) was 16.8 µM, the TGI (TK-10 renal) was > 125 µM and the GI50 (HOP-92 NSCLC) was 47.9 µM. The TGI (HOP-92 NSCLC) was 110 µM, the GI50 (OVCAR-3 ovarian) was 98.8 µM and the TGI (OVCAR-3 ovarian) was > 125 µM. For the same compound, the GI50 (RPMI-8226 leukemia) was 34.1 µM, the TGI (RPMI-8226 leukemia) was > 125 µM and the TGI (SK-MEL-28 melanoma) was > 125 µM. For the same compound, the GI50 (NCI-H522 lung) was 12.8 µM, the TGI (NCI-H522 lung) was 112 µM and the TGI (DLD-1 colon) was > 125 µM. For the same compound, the GI50 (SN12C renal) was 44.8 µM, the TGI (SN12C renal) was > 125 µM and the TGI (SW-620 colon) was > 125 µM. The TGI (MALME-3M melanoma) was > 125 µM, the TGI (BT-549 breast) was > 125 µM and the GI50 (SNB-19 CNS) was 60.6 µM. For the same compound, the TGI (SNB-19 CNS) was 124 µM, the GI50 (UACC-62 melanoma) was 52.9 µM and the TGI (UACC-62 melanoma) was > 116 µM. The GI50 (786-0 renal) was 36.8 µM, the TGI (786-0 renal) was > 125 µM and the TGI (SN12K1 renal) was > 72.4 µM. For the same compound, the TGI (RXF 393 renal) was 102 µM, the GI50 (K-562 leukemia) was 52.4 µM and the TGI (K-562 leukemia) was > 125 µM. For the same compound, the TGI (SK-MEL-2 melanoma) was > 125 µM, the TGI (LOX IMVI melanoma) was > 125 µM and the GI50 (KM12 colon) was 37.9 µM. For the same compound, the TGI (KM12 colon) was > 125 µM, the GI50 (SF-295 CNS) was 32.2 µM and the TGI (SF-295 CNS) was > 116 µM. For the same compound, the GI50 (IGROV1 ovarian) was 51 µM, the TGI (IGROV1 ovarian) was 123 µM and the TGI (A498 renal) was 104 µM. The TGI (NCI-H23 lung) was > 125 µM, the GI50 (COLO 205 colon) was 33.9 µM and the TGI (COLO 205 colon) was > 125 µM. For the same compound, the TGI (HCC-2998 colon) was > 125 µM, the TGI (P388 leukemia) was > 125 µM and the GI50 (HL-60(TB) leukemia) was 15.5 µM. For the same compound, the TGI (HL-60(TB) leukemia) was > 125 µM, the GI50 (UO-31 renal) was 44 µM and the TGI (UO-31 renal) was > 125 µM. The TGI (PC-3 prostate) was > 125 µM, the GI50 (SK-OV-3 ovarian) was 46.5 µM and the TGI (SK-OV-3 ovarian) was > 122 µM. The TGI (HS 578T breast) was > 76 µM, the TGI (DU-145 prostate) was > 125 µM and the TGI (T-47D breast) was > 125 µM. The GI50 (EKVX NSCLC) was 72.2 µM, the TGI (EKVX NSCLC) was > 125 µM and the GI50 (M19-MEL melanoma) was 54.8 µM. For the same compound, the TGI (M19-MEL melanoma) was > 125 µM, the GI50 (HCT-116 colon) was 29.7 µM and the TGI (HCT-116 colon) was > 125 µM. The TGI (MDA-N) was > 125 µM, the TGI (NCI/ADR-RES ovarian) was > 125 µM and the TGI (P388/ADR leukemia) was > 125 µM. The TGI (MDA-MB-231 breast) was 123 µM, the TGI (SK-MEL-5 melanoma) was 90.9 µM and the TGI (SNB-78 CNS) was > 79.4 µM. The TGI (MDA-MB-435) was > 125 µM, the GI50 (U251 CNS) was 35.7 µM and the TGI (U251 CNS) was 121 µM. The TGI (OVCAR-4 ovarian) was > 125 µM, the TGI (MCF7 breast) was > 78.9 µM and the GI50 (NCI-H226 lung) was 36.8 µM. For the same compound, the TGI (NCI-H226 lung) was > 117 µM, the TGI (KM20L2 colon) was > 125 µM and the GI50 (SF-539 CNS) was 5.29 µM. It also gave a TGI (SF-539 CNS) of 95.8 µM, a TGI (SNB-75 CNS) of 69.5 µM and a GI50 (HOP-62 NSCLC) of 45.7 µM. The TGI (HOP-62 NSCLC) was 23.8 µM, the GI50 (CCRF-CEM leukemia) was 37.6 µM and the TGI (CCRF-CEM leukemia) was > 90 µM. The TGI (OVCAR-5 ovarian) was > 112 µM, the GI50 (HT29 colon) was 19.2 µM and the TGI (HT29 colon) was > 125 µM. For the same compound, the TGI (NCI-H460 lung) was > 125 µM, the GI50 (ACHN renal) was 34 µM and the TGI (ACHN renal) was > 125 µM. For the same compound, the GI50 (MOLT-4 leukemia) was 19.2 µM and the TGI (MOLT-4 leukemia) was 96.5 µM and 58.2 µM.
